Assay results taken from US9434743B2, “Indazole derivatives” (TAKEDA PHARMACEUTICAL COMPANY LIMITED, priority 2012, dated 2016).

Experiments:
human MetAP2 enzyme [1] = biological target: T1, human MetAP2 enzyme (Homo sapiens, UniProt P50579); experiment: MetAP2 enzyme assay, enzyme complexed with manganese ions; conditions: MetAP2 Mn pIC50, MetAP2 enzyme complexed with manganese ions; Met-AMC substrate at Km
human MetAP2 enzyme [2] = biological target: T1, human MetAP2 enzyme; experiment: MetAP2 enzyme assay, enzyme complexed with cobalt ions; conditions: MetAP2 Co pIC50, MetAP2 enzyme complexed with cobalt ions; Met-AMC substrate at Km
Description: DNA encoding the full-length sequence of human MetAP2 enzyme is amplified by PCR and cloned into a pFastBac expression vector (Invitrogen). Recombinant baculovirus incorporating the MetAP2 construct is generated by transposition using the Bac-to-Bac system (Invitrogen). The expression of recombinant protein is carried out by infection of Spodoptera frugiperda Sf9 cells (Invitrogen) in 5 L Wave Bioreactors (Wave Biotech). Recombinant protein is isolated from cellular extracts by binding to an SP Hitrap Fast Flow or SP Sepharose (Sigma) column, and the protein is eluted using a NaCl gradient. Partially purified extracts of MetAP2 are further purified by an AKTA FPLC over a Superdex-200 column (GE). The purity of MetAP2 protein is determined on denaturing SDS-PAGE gel.
The results for each well are expressed as percent inhibition and calculated using the equation:

T1 sequence (P50579 whole entry): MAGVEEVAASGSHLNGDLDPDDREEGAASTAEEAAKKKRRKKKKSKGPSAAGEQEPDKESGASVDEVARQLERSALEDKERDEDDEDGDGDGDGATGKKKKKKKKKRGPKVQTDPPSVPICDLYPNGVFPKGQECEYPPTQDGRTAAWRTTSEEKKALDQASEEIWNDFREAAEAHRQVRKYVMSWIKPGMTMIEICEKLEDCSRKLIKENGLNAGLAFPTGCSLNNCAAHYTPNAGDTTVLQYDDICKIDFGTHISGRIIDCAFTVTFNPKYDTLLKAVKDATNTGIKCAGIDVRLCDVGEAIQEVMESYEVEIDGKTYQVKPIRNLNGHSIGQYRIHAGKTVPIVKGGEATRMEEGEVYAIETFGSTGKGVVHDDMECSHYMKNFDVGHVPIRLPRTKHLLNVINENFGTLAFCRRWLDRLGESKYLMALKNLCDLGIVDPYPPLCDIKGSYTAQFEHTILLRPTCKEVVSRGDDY

Row | SMILES | IC50 (human MetAP2 enzyme [1]) [nM] | IC50 (human MetAP2 enzyme [2]) [nM]
1 | Cc1nc(N2CCCC2)ccc1-c1cc(C(F)(F)F)cc2[nH]ncc12 [Example 384, 4-(2-methyl-6-(pyrrolidin-1-yl)pyridin-3-yl)-6-(trifluoromethyl)-1H-indazole] | 15.8 | 79.4
2 | C[C@H](CO)Nc1ncc(-c2cc(C(F)(F)F)cc3[nH]ncc23)cn1 [Example 206, (R)-2-(5-(6-(trifluoromethyl)-1H-indazol-4-yl)pyrimidin-2-ylamino)propan-1-ol] | 7.94 | 79.4
3 | FC(F)(F)c1cc(-c2cccc(-c3cc[nH]n3)c2)c2cn[nH]c2c1 [Example 61, 4-(3-(1H-pyrazol-3-yl)phenyl)-6-(trifluoromethyl)-1H-indazole] | 39.8 | 158
4 | Nc1ccc(-c2cc(C(F)(F)F)cc3[nH]ncc23)cn1 [Example 16, 5-(6-(trifluoromethyl)-1H-indazol-4-yl)pyridin-2-amine] | 5.01 | 31.6
5 | NC(=O)c1ccc(-c2cc(C(F)(F)F)cc3[nH]ncc23)cn1 [Example 251, 5-(6-(trifluoromethyl)-1H-indazol-4-yl)picolinamide] | 5.01 | 63.1
6 | Cc1c(-c2cc(C(F)(F)F)cc3[nH]ncc23)ccc2ncnn12 [Example 393, 5-methyl-6-(6-(trifluoromethyl)-1H-indazol-4-yl)-[1,2,4]triazolo[1,5-a]pyridine] | 6.31 | 50.1
7 | Cc1ccc(S(=O)(=O)N(C)C)cc1-c1cc(C(F)(F)F)cc2[nH]ncc12 [Example 127, N,N,4-trimethyl-3-(6-(trifluoromethyl)-1H-indazol-4-yl)benzenesulfonamide] | 12.6 | 15.8
8 | Cn1cc2c(-c3cc(C(F)(F)F)cc4[nH]ncc34)cccc2n1 [Example 15, 2′-methyl-6-(trifluoromethyl)-1H,2′H-4,4′-biindazole] | 6.31 | 10
9 | CN1C(=O)COc2ccc(-c3cc(C(F)(F)F)cc4[nH]ncc34)cc21 [Example 296, 4-methyl-6-(6-(trifluoromethyl)-1H-indazol-4-yl)-2H-benzo[b][1,4]oxazin-3(4H)-one] | 6.31 | 20
10 | CNC(=O)c1ccc(F)cc1-c1cc(C(F)(F)F)cc2[nH]ncc12 [Example 102, 4-fluoro-N-methyl-2-(6-(trifluoromethyl)-1H-indazol-4-yl)benzamide] | 79.4 | 631
11 | NCC(O)c1ccccc1-c1cc(C(F)(F)F)cc2[nH]ncc12 (stereo not shown) [Example 205, 2-amino-1-(2-(6-(trifluoromethyl)-1H-indazol-4-yl)phenyl)ethanol] | 12.6 | 1260
12 | FC(F)(F)c1cc(-c2ccncc2)c2cn[nH]c2c1 [Example 14, 4-(pyridin-4-yl)-6-(trifluoromethyl)-1H-indazole] | 10 | 100
13 | Oc1cccnc1-c1cc(C(F)(F)F)cc2[nH]ncc12 [Example 214, 2-(6-(trifluoromethyl)-1H-indazol-4-yl)pyridin-3-ol] | 15.8 | 501
14 | COc1ncc(-c2cc(C(F)(F)F)cc3[nH]ncc23)cc1C(=O)N1CCN(C)CC1 [Example 288, (2-methoxy-5-(6-(trifluoromethyl)-1H-indazol-4-yl)pyridin-3-yl)(4-methylpiperazin-1-yl)methanone] | 5.01 | 31.6
15 | Cc1nc2[nH]c(O)nc2cc1-c1cc(C(F)(F)F)cc2[nH]ncc12 [Example 382, 5-methyl-6-(6-(trifluoromethyl)-1H-indazol-4-yl)-3H-imidazo[4,5-b]pyridin-2-ol] | 6.31 | 12.6
16 | Cc1nn(CC#N)c(C)c1-c1cc(C(F)(F)F)cc2[nH]ncc12 [Example 170, 2-(3,5-dimethyl-4-(6-(trifluoromethyl)-1H-indazol-4-yl)-1H-pyrazol-1-yl)acetonitrile] | 20 | 100
17 | FC(F)(F)c1cc(-c2cccc3ncccc23)c2cn[nH]c2c1 [Example 101, 5-(6-(trifluoromethyl)-1H-indazol-4-yl)quinoline] | 10 | 31.6
18 | COc1nccc(C)c1-c1cc(C(F)(F)F)cc2[nH]ncc12 [Example 123, 4-(2-methoxy-4-methylpyridin-3-yl)-6-(trifluoromethyl)-1H-indazole] | 31.6 | 63.1
19 | CNS(=O)(=O)c1cccc(-c2cc(C(F)(F)F)cc3[nH]ncc23)c1 [Example 104, N-methyl-3-(6-(trifluoromethyl)-1H-indazol-4-yl)benzenesulfonamide] | 39.8 | 316
20 | C[C@H](O)CNc1ncc(-c2cc(C(F)(F)F)cc3[nH]ncc23)cn1 [Example 208, (S)-1-(5-(6-(trifluoromethyl)-1H-indazol-4-yl)pyrimidin-2-ylamino)propan-2-ol] | 6.31 | 79.4
21 | O=c1[nH]c2cc(-c3cc(C(F)(F)F)cc4[nH]ncc34)cnc2[nH]1 [Example 241, 6-(6-(trifluoromethyl)-1H-indazol-4-yl)-1H-imidazo[4,5-b]pyridin-2(3H)-one] | 2 | 15.8

Row | SMILES | IC50 (human MetAP2 enzyme [1]) [nM] | IC50 (human MetAP2 enzyme [2]) [nM]
22 | CN(C)C(=O)c1c[nH]c(=O)c(-c2cc(C(F)(F)F)cc3[nH]ncc23)c1 [Example 334, N,N-dimethyl-6-oxo-5-(6-(trifluoromethyl)-1H-indazol-4-yl)-1,6-dihydropyridine-3-carboxamide] | 20 | 794
23 | Cc1nn(C)c(C)c1-c1cc(C(F)(F)F)cc2[nH]ncc12 [Example 164, 6-(trifluoromethyl)-4-(1,3,5-trimethyl-1H-pyrazol-4-yl)-1H-indazole] | 3.98 | 15.8
24 | CCn1ncc(-c2cc(C(F)(F)F)cc3[nH]ncc23)c1C [Example 175, 4-(1-ethyl-5-methyl-1H-pyrazol-4-yl)-6-(trifluoromethyl)-1H-indazole] | 10 | 39.8
25 | O=C(c1ccc(-c2cc(C(F)(F)F)cc3[nH]ncc23)cn1)N1CCOCC1 [Example 262, morpholino(5-(6-(trifluoromethyl)-1H-indazol-4-yl)pyridin-2-yl)methanone] | 10 | 200
26 | Cn1c(-c2cc(C(F)(F)F)cc3[nH]ncc23)cc2ccccc21 [Example 51, 4-(1-methyl-1H-indol-2-yl)-6-(trifluoromethyl)-1H-indazole] | 100 | 2510
27 | COc1nccc(-c2cc(C(F)(F)F)cc3[nH]ncc23)c1Cl [Example 124, 4-(3-chloro-2-methoxypyridin-4-yl)-6-(trifluoromethyl)-1H-indazole] | 15.8 | 63.1
28 | NC(=O)c1cc(-c2cc(C(F)(F)F)cc3[nH]ncc23)ccc1F [Example 110, 2-fluoro-5-(6-(trifluoromethyl)-1H-indazol-4-yl)benzamide] | 3.98 | 63.1
29 | O=C(NCCO)c1cc(-c2cc(C(F)(F)F)cc3[nH]ncc23)c[nH]c1=O [Example 228, N-(2-hydroxyethyl)-2-oxo-5-(6-(trifluoromethyl)-1H-indazol-4-yl)-1,2-dihydropyridine-3-carboxamide] | 5.01 | 158
30 | CCOc1ncccc1-c1cc(C(F)(F)F)cc2[nH]ncc12 [Example 133, 4-(2-ethoxypyridin-3-yl)-6-(trifluoromethyl)-1H-indazole] | 10 | 63.1
31 | Cc1cc(=O)n(Cc2ccccn2)cc1-c1cc(C(F)(F)F)cc2[nH]ncc12 [Example 406, 4-methyl-1-(pyridin-2-ylmethyl)-5-(6-(trifluoromethyl)-1H-indazol-4-yl)pyridin-2(1H)-one] | 15.8 | 79.4
32 | Cc1ccc(C(=O)NCCO)cc1-c1cc(C(F)(F)F)cc2[nH]ncc12 [Example 368, N-(2-hydroxyethyl)-4-methyl-3-(6-(trifluoromethyl)-1H-indazol-4-yl)benzamide] | 12.6 | 31.6
33 | NC(=O)c1cccc(-c2cc(C(F)(F)F)cc3[nH]ncc23)c1 [Example 18, 3-(6-(trifluoromethyl)-1H-indazol-4-yl)benzamide] | 3.16 | 25.1
34 | CCCOc1ncccc1-c1cc(C(F)(F)F)cc2[nH]ncc12 [Example 134, 4-(2-propoxypyridin-3-yl)-6-(trifluoromethyl)-1H-indazole] | 25.1 | 100
35 | O=C1NCc2c1cccc2-c1cc(C(F)(F)F)cc2[nH]ncc12 [Example 141, 4-(6-(trifluoromethyl)-1H-indazol-4-yl)isoindolin-1-one] | 5.01 | 12.6
36 | Cc1cc2cncn2cc1-c1cc(C(F)(F)F)cc2[nH]ncc12 [Example 388, 4-(7-methylimidazo[1,5-a]pyridin-6-yl)-6-(trifluoromethyl)-1H-indazole] | 7.94 | 63.1
37 | O=C1Cc2ccc(-c3cc(C(F)(F)F)cc4[nH]ncc34)cc2N1 [Example 239, 6-(6-(trifluoromethyl)-1H-indazol-4-yl)indolin-2-one] | 5.01 | 15.8
38 | Cc1nc2cc(-c3cc(C(F)(F)F)cc4[nH]ncc34)cnc2[nH]1 [Example 341, 2-methyl-6-(6-(trifluoromethyl)-1H-indazol-4-yl)-3H-imidazo[4,5-b]pyridine] | 7.94 | 15.8
39 | CC(=O)Nc1cccnc1-c1cc(C(F)(F)F)cc2[nH]ncc12 [Example 218, N-(2-(6-(trifluoromethyl)-1H-indazol-4-yl)pyridin-3-yl)acetamide] | 251 | 2000
40 | CN(C)c1ncc(-c2cc(C(F)(F)F)cc3[nH]ncc23)cn1 [Example 247, N,N-dimethyl-5-(6-(trifluoromethyl)-1H-indazol-4-yl)pyrimidin-2-amine] | 3.98 | 50.1
41 | O=C1Cc2cccc(-c3cc(C(F)(F)F)cc4[nH]ncc34)c2N1 [Example 136, 7-(6-(trifluoromethyl)-1H-indazol-4-yl)indolin-2-one] | 12.6 | 158
